Test results taken from patent US10111847B2, “Compounds and methods for modulating vascular injury” (The Regents of the University of California, priority 2012, dated 2018).

Columns and labels:
Assay type in all cases: cell-based, human
VSMC = experiment: MTT cell viability assay; details: 1-100 nM for 8 hours
Protocol: Cells are plated onto 24-well plates and treated with or without RvD1 or RvD2 (1, 10, and 100 nM) for 8 hours. MTT viability assay is performed per manufacturer's instructions (TOX1 assay, Sigma).
FIG. 8: Cell viability is not affected by RvD1 or RvD2. Cells were treated with or without RvD1 or RvD2 (1, 10, and 100 nM) for 8 hours.

IL-1β-stimulated VSMC = experiment: Static monocyte (U937) adhesion assay, IL-1β-stimulated VSMC (RvD); details: IL-1β 1 nM 4 hours; 0.01-100 nM
Text: Primary cultures of human greater saphenous vein smooth muscle cells (hVSMC) are isolated from saphenous vein discarded at the time of bypass operation in an Institutional Review Board-approved protocol as described by Conte et al. “Regulation of vein graft hyperplasia by survivin, an inhibitor of apoptosis protein.” Arterioscler Thromb Vasc Biol. 2005; 25:2081-2087. VSMCs are maintained in Dulbecco's modified Eagle's medium (DMEM Low Glucose) (HyClone Laboratories Inc, Logan, Utah) containing 10% fetal bovine serum (FBS) (Invitrogen Life Technologies, Grand Island, N.Y.) and used between passages 2-5. Endothelial cells were maintained in Medium 199 supplemented with EBSS (Hyclone Laboratories, Logan, Utah, USA) and Endothelial Cell Growth Supplement. Cells between passages 3-8 were used for the experiments.
RvD. […] Fluorescence measurements (excitation 494 nm, emission 517 nm) of bound monocytes are made with plate reader (Spectra Max M2, Molecular Devices, LLC, Sunnyvale, Calif.).
FIG. 6: RvD1 and RvD2 modulate cell adhesion response of human VSMC to IL-1β. […] Results are shown as relative percent inhibition, expressed as a percentage of the maximal adhesion for the agonist (n=6, results are mean±SEM, **P<0.01, *P<0.05, unpaired t-test).

[1] = system: TNF-α, IL-1β, MCP-1, IL-6, and IL-1α; experiment: TNF-α-stimulated inflammatory cytokine gene expression in VSMC by qRT-PCR; details: 0.1 nM or 10 nM, greatest attenuation in IL-1β
Protocol: Cells are plated onto 6-well plates at 100% confluency in DMEM plus 10% FBS and allowed to attached overnight. Cells are then made quiescent by placing in serum-free media for 48-72 hours prior to start of experiments. Cells are treated with or without RvD1 or RvD2 at the indicated concentrations for one hour followed by co-incubation with cytokine (TNF-α 10 ng/ml) for up to 18 hours. In a separate set of experiments to examine the role of G-protein receptors, VSMCs are exposed to TNF-α and RvD2 (10 nM) as described above, in the presence or absence of pertussis toxin (PTX 100 ng/ml). Total RNA from rabbit sample or cells is isolated with PureLink RNA Mini kit (Ambion Life Technologies, Carlsbad, Calif.) with RNase-free DNase treatment according to manufacturer's protocol. One microgram of total RNA (from either VSMC or rabbit tissue) is used to generate cDNA using High Capacity cDNA Reverse Transcription Kit (Applied Biosystems, Foster City, Calif.) for subsequent RT-PCR reactions. Sybrgreen Amplified DNA is detected by incorporation SYBR Green (Qiagen, Germantown, Md.). Dissociation curve analyses are performed to confirm the specificity of the SYBR Green signal. Data is normalized to at least two reference genes. […]
FIG. 2: RvD1 and RvD2 reduce pro-inflammatory gene expression in VSMC. […] Expression of the cell adhesion molecules VCAM-1 (A) and ICAM-1 (B) was measured by qRT-PCR. […]

[2] = system: Stat1, C/EBP, SMAD, SATB1, EGR; experiment: Transcription factor multiplex array in TNF-α-stimulated VSMC; details: 10 nM; TNF-α 10 ng/ml 18 hours
Protocol: Cells are plated onto 96-well plates and treated with 10 ng/ml TNF-α in the presence or absence of 10 nM RvD2 for 18 hours and then nuclear extracts are prepared. Transcription factor profiling is performed using a multiplex array according to the manufacturer's instructions (Signosis Inc., Sunnyvale, Calif.).
FIG. 11: RvD1 and RvD2 modulate activity of multiple transcription factors in TNF-α-stimulated VSMC. VSMCs were treated with TNF-α (10 ng/ml) for 18 hours and nuclear extracts were prepared. Transcription factor profiling was performed using a multiplex array.

| Structure (SMILES) | loss of cell viability (MTT cytotoxicity assay) (VSMC) | inhibition of monocyte adhesion (U937) to IL-1β-stimulated VSMC (IL-1β-stimulated VSMC) | expression of multiple inflammatory cytokines including TNF-α, IL-1β, MCP-1, IL-6, and IL-1α [1] | transcription factor activity (Stat1, C/EBP, SMAD, SATB1, EGR) vs TNF-α-stimulated controls [2] |
| --- | --- | --- | --- | --- |
| CC/C=C\C[C@H](O)/C=C/C=C\C=C\C=C\[C@@H](O)[C@@H](O)C/C=C\CCC(=O)O [RvD1, Resolvin D1] | did not display significant loss of cell viability | dose-dependent inhibition | broad, significant reduction | – |
| CC/C=C\C[C@H](O)[C@H](O)/C=C/C=C/C=C\C=C\[C@@H](O)C/C=C\CCC(=O)O [RvD2, resolvin D2] | did not display significant loss of cell viability | dose-dependent inhibition | broad, significant reduction | significantly downregulated |
